Results on nine compounds are retold here after patent US5120720A, “Preparation of lipophile:hydroxypropylcyclodextrin complexes by a method using co-solubilizers” (priority 1990, dated 1992).

The conditions of data set [1]: read-out: Stability constant of the complex with α-cyclodextrin, cited from earlier work.
Data set [2] can be described thus: Solubility of freeze-dried complexes or residues in water, and stability of the solutions. It is filed as physicochemical. Conditions: attempted complex preparation. As for the experimental part: For a number of applications, complexes in powdery form as prepared by freeze-drying (lyophilizing), are preferable to the glassy residues such as are obtained by the above discussed procedure. Therefore, to obtain complexes in a powdery form, the glassy preparations were dissolved in water (final concentration of hydroxypropyl-β-cyclodextrin was about 10% W/W), sterilized by ultrafiltration and freeze-dried. All of the following exemplary preparations of steroids so prepared, dissolved fully. Moreover, the complexes so obtained were again amorphous and could be tabletted by direct compression.
The solubility of freeze-dried complexes such as those provided below was invariably high. For example, all the complexes of steroids in Examples 1-3 dissolved smoothly in water up to 40% W/W concentration, and these solutions were stable for at least 24 hours.
[…] Full dissolution occurred in five minutes; the solution was then filtered through a membrane filter (pore size 0.22 μm). The filtrate was evaporated at room temperature in vacuo to dryness leaving a glassy residue. […] The yield was 85%.

The format of data set [3] is physicochemical. The text has this: The methods of preparation herein disclosed were also used successfully with the ethanol-soluble peptides such as gramicidin S, complexed with hydroxypropyl-β-cyclodextrin (Example 4). It was also used to prepare the gramicidin S:hydroxypropyl-α-cyclodextrin preparation (Example 5) and gramicidin S:hydroxypropyl-γ-cyclodextrin preparation (Example 6).
The processes disclosed herein differ substantially from those described by Szejtli (p. 268) for the preparation of crystalline β-cyclodextrin:vitamin D3 complexes, which were prepared using organic solvents. In this regard, the procedure described by Szejtli consists of the co-dissolution of components, i.e., of crystalline β-cyclodextrin and vitamin D3, at 50° C. in 60-65% aqueous ethanol, followed by cooling of the clear solution during which crystalline complex of the vitamin precipitates. Moreover, attempts to use Szejtli's procedure for the above complexes were not successful, since concentration of ethanol in the range 60-65% solubilized steroids only incompletely and no precipitation occurred.

For data set [4] the following is noted: read-out: Stability constant of the complex with β-cyclodextrin, cited from earlier work.
The conditions of data set [5]: β-cyclodextrin, aqueous sodium hydroxide then phosphoric acid (U.S. Pat. No. 4,883,785, Example 3); cited from earlier work.
Where [6] appears, read: source (a) M. Suzuki et al. 1988.
The mark [7] stands for this setting: source (b) Y. Matsui and K. Mochida 1979.
The mark [8] stands for this setting: source (d) W. Hirsch et al. 1987.

Where two headings read alike, the source gives them in different places.

In the case of `CCCO` [n-propanol], the Kd was 50 mM in data set [1] (setting [6]) and 43.5 mM in data set [1] (setting [7]).

As to gramicidin D, in data set [2], the “Solubility in water of solid residue after evaporation of ethanol 95% solution” value is “insoluble in water”. Further, in data set [3] (ethanol 75%), the “Dissolution in ethanol 75%” value is “did not dissolve”. Also, in data set [3] (ethanol 95%), the “Dissolution in ethanol 95%” value is “dissolved”.

`CC(C)(C)O` [t-butanol]: the Kd in data set [4] (setting [6]) is 23.8 mM; in data set [4] (setting [7]) it was 20.8 mM.

Turning to `OC[C@H]1O[C@@H]2O[C@H]3[C@H](O)[C@@H](O)[C@@H](O[C@H]4[C@H](O)[C@@H](O)[C@@H](O[C@H]5[C@H](O)[C@@H](O)[C@@H](O[C@H]6[C@H](O)[C@@H](O)[C@@H](O[C@H]7[C@H](O)[C@@H](O)[C@@H](O[C@H]8[C@H](O)[C@@H](O)[C@@H](O[C@H]1[C@H](O)[C@H]2O)O[C@@H]8CO)O[C@@H]7CO)O[C@@H]6CO)O[C@@H]5CO)O[C@@H]4CO)O[C@@H]3CO` [β-cyclodextrin], the “Solubility in 75% ethanol” value in data set [3] is “low solubility”.

Consider `C[C@@H]1[C@H](O)[C@@H](C)/C=C/C=C/C=C/C=C/C=C/C=C/C=C/[C@H](O[C@@H]2O[C@H](C)[C@@H](O)[C@H](N)[C@@H]2O)C[C@@H]2O[C@](O)(C[C@@H](O)C[C@@H](O)[C@H](O)CC[C@@H](O)C[C@@H](O)CC(=O)O[C@H]1C)C[C@H](O)[C@H]2C(=O)O` [amphotericin B], for which the Starting drug solubilized entry in data set [5] was “about 1%”.

For `CCCCCO` [n-pentanol], the Kd is 3.33 mM in data set [1] (setting [6]), 3.1 mM in data set [1] (setting [7]), 11.5 mM in data set [4] (setting [6]) and 15.9 mM in data set [4] (setting [7]).

Turning to `CC(C)(C)CO` [2,2-dimethyl-1-propanol], the Kd in data set [1] (setting [6]) is 33.3 mM; in data set [4] (setting [6]) it was 1.52 mM; in data set [4] (setting [7]), 1.72 mM.

With `N` [ammonia], the Kd in data set [1] (setting [8]) is 0.0164 mM; in data set [4] (setting [8]) it was 0.0667 mM.

Consider `CCCCO` [n-butanol], for which the Kd in data set [1] (setting [6]) was 9.09 mM; in data set [1] (setting [7]), 11.2 mM.
